According to PMC4822313, “Modulating the import of medium-chain alkanes in E. coli through tuned expression of FadL” (Journal of Biological Engineering, 2016):

Molecular target: T1, AlkBGT alkane monooxygenase complex (Ectopseudomonas oleovorans, UniProt P12691)
T1 construct: gene alkB; inner membrane AlkB with rubredoxin AlkG and reductase AlkT; expressed in E. coli from pGEc41; with Rubredoxin-2; Rubredoxin-NAD(+) reductase
T1 sequence (P12691 1-401): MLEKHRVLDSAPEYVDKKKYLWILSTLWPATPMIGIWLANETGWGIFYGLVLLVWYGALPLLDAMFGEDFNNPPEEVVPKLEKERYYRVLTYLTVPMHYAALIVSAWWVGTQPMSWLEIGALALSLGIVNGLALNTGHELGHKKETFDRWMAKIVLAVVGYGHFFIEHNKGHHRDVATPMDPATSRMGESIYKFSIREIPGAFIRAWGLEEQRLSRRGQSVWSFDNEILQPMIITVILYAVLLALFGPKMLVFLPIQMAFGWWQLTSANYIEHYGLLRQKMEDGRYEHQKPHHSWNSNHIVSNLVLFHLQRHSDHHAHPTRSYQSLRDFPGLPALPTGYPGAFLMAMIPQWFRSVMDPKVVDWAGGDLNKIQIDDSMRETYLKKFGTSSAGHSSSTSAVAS
Test: whole-cell oxidation, GC-FID of products
Type: cell-based
Conditions: 30 % (v/v) octane, 37 °C, E. coli with pGEc41

CCCCCCCCO [1-octanol]
whole-cell oxidation, GC-FID of products: The synthesis of 1-octanol and 1-octanal is attributed to AlkB
